# In patent publication EP0623346B1, “INHIBITOR FOR METASTASIS OF MALIGNANT TUMOR” (TORAY INDUSTRIES, INC., priority 1992, dated 1994):
# Marks after values point to notes of the source that are not given here.
# What was measured:
# Mouse Melanoma B16F10 = test: Effectiveness on blood-mediated metastasis in mice of mouse melanoma B16F10 (lung metastasized nodes); assay type: in vivo, C57/BL6 mice; conditions: for Number of Metastasized Nodes (mean ± standard error): simultaneously with 10^6 cells/mouse in tail vein, lung surface nodes counted after 14 days; for Metastasis Inhibition Rate (%): versus control group, p< 0.001
# Protocol: [Effectiveness on Blood-mediated Metastasis in Mice of Mouse Melanoma B16F10]
# Liquid-cultured mouse melanoma cells were transplanted in tail veins of C57/BL6 mice (6 weeks old, male) in an amount of 10^6 cells/mouse. Simultaneously, beraprost sodium salt was administered intravenously at a dose of 0.03 mg/kg, 0.1 mg/kg or 0.3 mg/kg. To a control group, phosphate buffer saline was administered. Fourteen days after the administration, mice were sacrificed and the lung was removed from each mouse. From the trachea communicating to the lung, 10% neutral buffered formalin solution was poured to inflate the lung, and the lung was immersed in 10% neutral buffered formalin solution to fix the lung. Several days later, each lung was divided and the number of the metastasized nodes on the surface of each leaf was counted with a stereoscopic microscope.
# The statistical analysis of this example was carried out according to the student's t-test.
# Acute toxicity test = assay type: in vivo, rats; conditions: for LD50: 14 days observation, 95% reliable limit in parentheses, Litchfield-Wilcoxon Method
# Protocol: Acute toxicity test was carried out using rats.
# The numbers in parentheses indicate 95% reliable limit.
structure (smiles),measurement,setting,value
"CC#CCC(C)[C@H](O)/C=C/[C@@H]1[C@H]2c3cccc(CCCC(=O)O)c3O[C@H]2C[C@H]1O (mixture of isomers) [Beraprost, (±)-(1R*, 2R*, 3aS*, 8bS*)-2,3,3a,8b-tetrahydro-2-hydroxy-1-[(E)-(3S*)-3-hydroxy-4-methyl-1-octene-6-inyl]-1H-cyclopenta[b]benzofuran-5-butyric acid]",Number of Metastasized Nodes (mean ± standard error),Mouse Melanoma B16F10; 0.03 mg/kg intravenously,204 ± 24
same,Metastasis Inhibition Rate (%),Mouse Melanoma B16F10; 0.03 mg/kg intravenously,48*** %
same,Number of Metastasized Nodes (mean ± standard error),Mouse Melanoma B16F10; 0.1 mg/kg intravenously,160 ± 28
same,Metastasis Inhibition Rate (%),Mouse Melanoma B16F10; 0.1 mg/kg intravenously,52*** %
same,Number of Metastasized Nodes (mean ± standard error),Mouse Melanoma B16F10; 0.3 mg/kg intravenously,167 ± 21
same,Metastasis Inhibition Rate (%),Mouse Melanoma B16F10; 0.3 mg/kg intravenously,49*** %
same,maximum inhibition rate of metastasis of B16F10 to mouse lungs,Mouse Melanoma B16F10; maximum over doses 0.03-0.3 mg/kg intravenously,52%
same,LD50,"Acute toxicity test; Intravenous, Female",13 (10-16) mg/kg
same,LD50,"Acute toxicity test; Intravenous, Male",18 (15-22) mg/kg
same,LD50,"Acute toxicity test; Oral, Female",12 (9-15) mg/kg
same,LD50,"Acute toxicity test; Oral, Male",15 (13-19) mg/kg
same,LD50,"Acute toxicity test; Subcutaneous, Female",7 ( 6- 9) mg/kg
same,LD50,"Acute toxicity test; Subcutaneous, Male",13 (12-14) mg/kg
same,"pathological observation, main findings","Acute toxicity test; animals that were killed, common to male and female and to all administration routes","slight to medium congestion in lung, slight to medium bleeding in glandular stomach and slight small intestine catarrh"
